Consider two compounds from patent US20110086872A1, “Berberine as a selective lung cancer agent and other compositions and methods” (priority 2007, published 2011).

The structures appear in SMILES notation. Where two headings read alike, the source gives them in different places. Some results are limits rather than exact numbers.

Data set [1] deals with human cancer cell lines tested. Put plainly: Cytotoxic activity against panel of human cancer cell lines. The class given is cell-based.
The target in data set [2] is T1, human immunodeficiency virus-1 reverse transcriptase (HIV-1 RT) (Human immunodeficiency virus type 1 group M subtype B, UniProt P03366).
T1 construct: human immunodeficiency virus-1 reverse transcriptase (HIV-1 RT)
It counts as biochemical. The settings on record: no unit or quantity printed. The method, then: (§1) The plant partitions were evaluated using in vitro bioassays based on a panel of human cancer cell lines: BC, Human Breast; Col2, Human Colon; KB, Human Carcinoma of the Nasopharynx; KBV1, Vinblastine-resistant KB; LNCaP, Hormone-dependent Human Prostate, and ZR75-1, Hormone-dependent Human Breast. These lines represent the main priorities for anticancer screening of the National Cancer Institute and have been well documented (Lin et al., J. Nat. Prod. 56: 22-29 (1993). In addition, samples were evaluated against the HIV-1 reverse transcriptase assay and, if active, against HIV-2 RT assay and a TIBO-resistant HIV-1 strain. Furthermore, some samples were tested for antimalarial activity (Angerhofer, Advances in Natural Products Chemistry, ed. Atta-ur-Rahman, pp 311-329 (1992)).
Thus, extracts, fractions and isolated compounds of plants were evaluated against three basic disease states: cancer, AIDS and malaria according to the published and established protocols and procedures. […] ((Angerhofer, Advances in Natural Products Chemistry, ed. Atta-ur-Rahman, pp 311-329 (1992), Monks et al., J. Nat'l Cancer Inst. 83: 11, 757-766 (1991), Tan et al., J. Nat. Product 54:143-154 (1991), Tan et al., Biochem. Biophysics. Res. Commun. 185:370-378 (1992), Geran et al., Cancer Chemother. Rep., Part 3, 3: 1-17 (1972), Skehan et al., J. Nat'l Cancer Inst. 82:1107-1112 (1990).)

Data set [3] deals with D6 clone of P. falciparum. Put plainly: Antimalarial activity, D6 clone. The class given is cell-based. The method, then: as §1
(§2) Thus, extracts, fractions and isolated compounds of plants were evaluated against three basic disease states: cancer, AIDS and malaria according to the published and established protocols and procedures. […] ((Angerhofer, Advances in Natural Products Chemistry, ed. Atta-ur-Rahman, pp 311-329 (1992), Monks et al., J. Nat'l Cancer Inst. 83: 11, 757-766 (1991), Tan et al., J. Nat. Product 54:143-154 (1991), Tan et al., Biochem. Biophysics. Res. Commun. 185:370-378 (1992), Geran et al., Cancer Chemother. Rep., Part 3, 3: 1-17 (1972), Skehan et al., J. Nat'l Cancer Inst. 82:1107-1112 (1990).) […]

The subject of data set [4] is Lu1 human lung cancer cell line. Put plainly: Cytotoxic activity against Lu1 cancer cell line. The class given is cell-based. The settings on record: pure isolates. The method, then: The CHCl3 was fractionated over a silica gel column (5×60 cm, 700 g, 63-200 μm). For the column chromatography, a CHCl3/MeOH gradient solvent system was applied with a gradual increase of the MeOH content. Fourteen fractions were collected based on the similarity of their TLC profiles. The fractions were then evaluated for their cytotoxic activity against Lu1 cancer cell line in order to determine the active fractions. […] (See FIG. 4, Table 2).

Data set [5] concerns W2 clone of P. falciparum. Put plainly: Antimalarial activity, W2 clone. It counts as cell-based. The method, then:
as §1, §2

The subject of data set [6] is Colon, Col 2 human cancer cell line. Particulars: cited from earlier work.
Data set [7] deals with Breast, BC1 human cancer cell line. Particulars: cited from earlier work.
Data set [8] relates to D6 clone of P. falciparum. Particulars: Vennestrom and Klayman, 1988; read-out: literature IC50 against D6 clone of P. falciparum; cited from earlier work.
The subject of data set [9] is W2 clone of P. falciparum. The settings on record: Vennestrom and Klayman, 1988; read-out: literature IC50 against W2 clone of P. falciparum; cited from earlier work.
Data set [10] relates to Lung, Lu1 human cancer cell line. The settings on record: cited from earlier work.

On to `COc1ccc2c(c1OC)C(=O)N1CCc3cc4c(cc3C(=O)C21O)OCO4` (racemic) [(±)-Chilenine], for which, in data set [1] (all cell lines of the panel, read-out: IC50 values against all of the human cancer cell lines tested), the IC50 was 15.7 to 33.4 µM.

Turning to `COc1ccc2cc3[n+](cc2c1OC)CCc1cc2c(cc1-3)OCO2` [berberine], the “anti-HIV activity against HIV-1 RT, value” in data set [2] is 353.3. Moreover, the “selectivity index (SI), D6” value in data set [3] (D6 clone) worked out at 53.6. In addition, the half-inhibitory concentration (IC50) in [3] (Plasmodium falciparum, D6, read-out: IC50 against D6 clone of P. falciparum) is 1.1 µM; in data set [4] it was 11.9 µM; in data set [5] (Plasmodium falciparum, W2, read-out: IC50 against W2 clone of P. falciparum), 3.2 µM; in data set [6], 40 µM; in [7], 2.74 µM; in data set [8], 0.42 µM. Also, the IC50 is 0.44 µM in data set [9]; 25 µM in data set [10]; over 59.5 µM in data set [1] (Homo sapiens, cancer cell lines other than lung, read-out: IC50 values, other cancer cell lines tested). For the same compound, the “selectivity index (SI), W2” value in data set [5] (W2 clone) is on record as 18.7.

Broadly, the IC50 is the point on the concentration scale where inhibition reaches its midpoint.
